Laboratory results reported in patent publication US9073892B2, “Indazolyl triazol derivatives” (Merck Serono S.A., priority 2010, dated 2015).
Structures can show the parent of a compound that is named as a salt.

System: T1, IRAK1/4 human
T1 construct: fused on or other part: His tag and TEV cleavage site at the N-terminus
Experiment: IRAK1/4 phosphorylation IC50 (enzymatic assay, table 2)
Type: biochemical
Details: human IRAK1/4 phosphorylation
Summary of the method: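 Inhibition values are IC50s. They come from 384-well reactions in which His-TEV-tagged human IRAK-1 or IRAK-4 (the latter with STK1-biotin peptide) met ATP and compounds in DMSO at 20 µM to 1 nM. The buffer was 50 mM Hepes pH7.0 containing MgCl2, DTT, EGTA and BSA, and incubation lasted 2 or 3 hours.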

| SMILES | IC50 [nM] |
| --- | --- |
| c1ccc2c(-c3cn(-c4ccc([C@@H]5C[C@H]6CC[C@@H](C5)N6C5CCCCC5)cc4)nn3)n[nH]c2c1 (single isomer, unassigned) [Example 151, 3-(1-{4-[(3-exo)-8-cyclohexyl-8-azabicyclo[3.2.1]oct-3-yl]phenyl}-1H-1,2,3-triazol-4-yl)-1H-indazole] | < 100 |
| c1ccc2c(-c3cn(-c4ccc([C@H]5C[C@H]6CC[C@@H](C5)N6C5CCCCC5)cc4)nn3)n[nH]c2c1 (single isomer, unassigned) [Example 152, 3-(1-{4-[(3-endo)-8-cyclohexyl-8-azabicyclo[3.2.1]oct-3-yl]phenyl}-1H-1,2,3-triazol-4-yl)-1H-indazole] | 100 to 1000 |
| NCc1ccc(-n2cc(-c3n[nH]c4ccccc34)nn2)cc1 [Example 12, 1-{4-[4-(1H-indazol-3-yl)-1H-1,2,3-triazol-1-yl]phenyl}methanamine] | 1000 to 5000 |
| O=C(NCc1ccc(-n2cc(-c3n[nH]c4ccccc34)nn2)cc1)C1CCCC1 [Example 13, N-{4-[4-(1H-indazol-3-yl)-1H-1,2,3-triazol-1-yl]benzyl}cyclopentanecarboxamide] | 1000 to 5000 |
| O=C(CN1CCOCC1)NCc1ccc(-n2cc(-c3n[nH]c4ccccc34)nn2)cc1 [Example 16, N-{4-[4-(1H-indazol-3-yl)-1H-1,2,3-triazol-1-yl]benzyl}-2-morpholin-4-ylacetamide] | 1000 to 5000 |
| O=C(NCc1ccc(-n2cc(-c3n[nH]c4ccccc34)nn2)cc1)C1CCOCC1 [Example 17, N-{4-[4-(1H-indazol-3-yl)-1H-1,2,3-triazol-1-yl]benzyl}tetrahydro-2H-pyran-4-carboxamide] | 1000 to 5000 |
| O=C(Cc1ccc(-n2cc(-c3n[nH]c4ccccc34)nn2)cc1)N1CCOCC1 [Example 18, 3-{1-[4-(2-morpholin-4-yl-2-oxoethyl)phenyl]-1H-1,2,3-triazol-4-yl}-1H-indazole] | 100 to 1000 |
| c1ccc2c(-c3cn(-c4ccc(N5CCOCC5)nc4)nn3)n[nH]c2c1 [Example 20, 3-[1-(6-morpholin-4-ylpyridin-3-yl)-1H-1,2,3-triazol-4-yl]-1H-indazole] | 1000 to 5000 |
| CN1CCN(C(=O)CCc2ccc(-n3cc(-c4n[nH]c5ccccc45)nn3)cc2)CC1 [Example 24, 3-(1-{4-[3-(4-methylpiperazin-1-yl)-3-oxopropyl]phenyl}-1H-1,2,3-triazol-4-yl)-1H-indazole] | 1000 to 5000 |
| CS(=O)(=O)N1CCN(C(=O)c2ccc(-n3cc(-c4n[nH]c5ccccc45)nn3)cc2)CC1 [Example 41, 3-[1-(4-{[4-(methylsulfonyl)piperazin-1-yl]carbonyl}phenyl)-1H-1,2,3-triazol-4-yl]-1H-indazole] | 100 to 1000 |
| O=C(NCC1CCCO1)c1ccc(-n2cc(-c3n[nH]c4ccccc34)nn2)cc1 (stereo not shown) [Example 45, 4-[4-(1H-indazol-3-yl)-1H-1,2,3-triazol-1-yl]-N-(tetrahydrofuran-2-ylmethyl)benzamide] | 100 to 1000 |
| CCN(CC)CCNC(=O)c1ccc(-n2cc(-c3n[nH]c4ccccc34)nn2)cc1 [Example 46, N-[2-(diethylamino)ethyl]-4-[4-(1H-indazol-3-yl)-1H-1,2,3-triazol-1-yl]benzamide] | 100 to 1000 |
| CCN1CCCC1CNC(=O)c1ccc(-n2cc(-c3n[nH]c4ccccc34)nn2)cc1 (stereo not shown) [Example 47, N-[(1-ethylpyrrolidin-2-yl)methyl]-4-[4-(1H-indazol-3-yl)-1H-1,2,3-triazol-1-yl]benzamide] | 100 to 1000 |
| CC1CCCCN1CCCNC(=O)c1ccc(-n2cc(-c3n[nH]c4ccccc34)nn2)cc1 (stereo not shown) [Example 56] | 100 to 1000 |
| N#CCCN1CCN(C(=O)c2ccc(-n3cc(-c4n[nH]c5ccccc45)nn3)cc2)CC1 [Example 57, 3-(4-(4-[4-(1H-indazol-3-yl)-1H-1,2,3-triazol-1-yl]benzoyl}piperazin-1-yl)propanenitrile] | 100 to 1000 |
| O=C(NCCCN1CCOCC1)c1cccc(-n2cc(-c3n[nH]c4ccccc34)nn2)c1 [Example 58, 3-[4-(1H-indazol-3-yl)-1H-1,2,3-triazol-1-yl]-N-(3-morpholin-4-ylpropyl)benzamide] | 100 to 1000 |
| CCC1CCCCN1CCCNC(=O)c1ccc(-n2cc(-c3n[nH]c4ccccc34)nn2)cc1 (stereo not shown) [Example 59, N-[3-(2-ethylpiperidin-1-yl)propyl]-4-[4-(1H-indazol-3-yl)-1H-1,2,3-triazol-1-yl]benzamide] | 100 to 1000 |
| O=C(NCCCN1CCCC1=O)c1ccc(-n2cc(-c3n[nH]c4ccccc34)nn2)cc1 [Example 61, 4-[4-(1H-indazol-3-yl)-1H-1,2,3-triazol-1-yl]-N-[3-(2-oxopyrrolidin-1-yl)propyl]benzamide] | 1000 to 5000 |
| O=C(NCc1cccc(F)c1)c1ccc(-n2cc(-c3n[nH]c4ccccc34)nn2)cc1 [Example 62, N-(3-fluorobenzyl)-4-[4-(1H-indazol-3-yl)-1H-1,2,3-triazol-1-yl]benzamide] | 1000 to 5000 |
| O=C(NCCCN1CCCCC1)c1cccc(-n2cc(-c3n[nH]c4ccccc34)nn2)c1 [Example 63, 3-[4-(1H-indazol-3-yl)-1H-1,2,3-triazol-1-yl]-N-(3-piperidin-1-ylpropyl)benzamide] | 1000 to 5000 |

| SMILES | IC50 [nM] |
| --- | --- |
| CN(CCNC(=O)c1cccc(-n2cc(-c3n[nH]c4ccccc34)nn2)c1)C1CCCCC1 [Example 64, N-{2-[cyclohexyl(methyl)amino]ethyl}-3-[4-(1H-indazol-3-yl)-1H-1,2,3-triazol-1-yl]benzamide] | 1000 to 5000 |
| COCCNC(=O)c1cccc(-n2cc(-c3n[nH]c4ccccc34)nn2)c1 [Example 65, 3-[4-(1H-indazol-3-yl)-1H-1,2,3-triazol-1-yl]-N-(2-methoxyethyl)benzamide] | 1000 to 5000 |
| CC(C)N1CCN(C(=O)c2cccc(-n3cc(-c4n[nH]c5ccccc45)nn3)c2)CC1 [Example 66, 3-(1-{3-[(4-isopropylpiperazin-1-yl)carbonyl]phenyl}-1H-1,2,3-triazol-4-yl)-1H-indazole] | 1000 to 5000 |
| O=C(c1cccc(-n2cc(-c3n[nH]c4ccccc34)nn2)c1)N1CCCCC1 [Example 67, 3-{1-[3-(piperidin-1-ylcarbonyl)phenyl]-1H-1,2,3-triazol-4-yl}-1H-indazole] | 1000 to 5000 |
| CC(C)NC(=O)c1cccc(-n2cc(-c3n[nH]c4ccccc34)nn2)c1 [Example 68, 3-[4-(1H-indazol-3-yl)-1H-1,2,3-triazol-1-yl]-N-isopropylbenzamide] | 1000 to 5000 |
| O=C(c1cccc(-n2cc(-c3n[nH]c4ccccc34)nn2)c1)N1CCCC(CN2CCCC2)C1 (stereo not shown) [Example 69, 3-[1-(3-{[3-(pyrrolidin-1-ylmethyl)piperidin-1-yl]carbonyl}phenyl)-1H-1,2,3-triazol-4-yl]-1H-indazole] | 1000 to 5000 |
| CN1CCN(C(=O)Cc2ccc(-n3cc(-c4n[nH]c5ccccc45)nn3)cc2)CC1 [Example 70] | 100 to 1000 |
| O=C(CCc1cccc(-n2cc(-c3n[nH]c4ccccc34)nn2)c1)N1CCCC1 [Example 87, 3-{1-[3-(3-oxo-3-pyrrolidin-1-ylpropyl)phenyl]-1H-1,2,3-triazol-4-yl}-1H-indazole] | 1000 to 5000 |
| CN1CCCC1CCNC(=O)c1ccc(-n2cc(-c3n[nH]c4ccccc34)nn2)cc1 (stereo not shown) [Example 90, 4-[4-(1H-indazol-3-yl)-1H-1,2,3-triazol-1-yl]-N-[2-(1-methylpyrrolidin-2-yl)ethyl]benzamide] | 100 to 1000 |
| O=C(c1ccc(-n2cc(-c3n[nH]c4ccccc34)nn2)c(F)c1)N1CCOCC1 [Example 102, 3-{1-[2-fluoro-4-(morpholin-4-ylcarbonyl)phenyl]-1H-1,2,3-triazol-4-yl}-1H-indazole] | 1000 to 5000 |
| O=C(c1ccc(-n2cc(-c3n[nH]c4ccccc34)nn2)cc1)N(CCO)C1CCCCC1 [Example 107, N-cyclohexyl-N-(2-hydroxyethyl)-4-[4-(1H-indazol-3-yl)-1H-1,2,3-triazol-1-yl]benzamide] | 100 to 1000 |
| CN1CCC(NC(=O)c2ccc(-n3cc(-c4n[nH]c5ccccc45)nn3)cc2)CC1 [Example 116, 4-[4-(1H-indazol-3-yl)-1H-1,2,3-triazol-1-yl]-N-(1-methylpiperidin-4-yl)benzamide] | 1000 to 5000 |
| CCC(O)CNC(=O)c1ccc(-n2cc(-c3n[nH]c4ccccc34)nn2)cc1 (stereo not shown) [Example 119, N-(2-hydroxybutyl)-4-[4-(1H-indazol-3-yl)-1H-1,2,3-triazol-1-yl]benzamide] | 100 to 1000 |
| O=C(c1ccc(-n2cc(-c3n[nH]c4ccc(Br)cc34)nn2)cc1)N1CCOCC1 [Example 122, 5-bromo-3-{1-[4-(morpholin-4-ylcarbonyl)phenyl]-1H-1,2,3-triazol-4-yl}-1H-indazole] | 100 to 1000 |
| C1=C(c2ccc(-n3cc(-c4n[nH]c5ccccc45)nn3)cc2)CCNC1 [Example 131, hydrochloride] | 100 to 1000 |
| FCCN1CCC(c2ccc(-n3cc(-c4n[nH]c5ccccc45)nn3)cc2)CC1 [Example 133, 3-(1-{4-[1-(2-fluoroethyl)piperidin-4-yl]phenyl}-1H-1,2,3-triazol-4-yl)-1H-indazole] | 100 to 1000 |
| CC(=O)N1CCC(c2ccc(-n3cc(-c4n[nH]c5ccccc45)nn3)cc2)CC1 [Example 134, 3-{1-[4-(1-acetylpiperidin-4-yl)phenyl]-1H-1,2,3-triazol-4-yl}-1H-indazole] | 100 to 1000 |
| Fc1ccc2c(-c3cn(-c4ccc(C5CCN(CCC(F)(F)F)CC5)cc4)nn3)n[nH]c2c1 [Example 135, 6-fluoro-3-(1-{4-[1-(3,3,3-trifluoropropyl)piperidin-4-yl]phenyl}-1H-1,2,3-triazol-4-yl)-1H-indazole] | 100 to 1000 |
| OC1CNCCC1c1ccc(-n2cc(-c3n[nH]c4ccccc34)nn2)cc1 (stereo not shown) [Example 137, 4-{4-[4-(1H-indazol-3-yl)-1H-1,2,3-triazol-1-yl]phenyl}piperidin-3-ol hydrochloride] | 100 to 1000 |
| CC(C)=Cc1ccc2[nH]nc(-c3cn(-c4ccc(C(=O)N5CCC(N(C)C)CC5)cc4)nn3)c2c1 [Example 138, N,N-dimethyl-1-(4-{4-[5-(2-methylprop-1-en-1-yl)-1H-indazol-3-yl]-1H-1,2,3-triazol-1-yl}benzoyl)piperidin-4-amine] | 100 to 1000 |
